Legend:
Drosophila OR10a = biological target: T1, Drosophila OR10a (Drosophila melanogaster, UniProt Q9VYZ1); assay: cell-based; design: GCaMP6 calcium fluorescence in stable HEK293 OR+ORCO lines; peak dF normalised to 50 uM VUAA1 (=1); details: HEK293; relative to 50 uM VUAA1 response; below 0.05 set to 0; read-out: % activation
T1 construct: expressed in transfected cells
T1 sequence (Q9VYZ1 1-406): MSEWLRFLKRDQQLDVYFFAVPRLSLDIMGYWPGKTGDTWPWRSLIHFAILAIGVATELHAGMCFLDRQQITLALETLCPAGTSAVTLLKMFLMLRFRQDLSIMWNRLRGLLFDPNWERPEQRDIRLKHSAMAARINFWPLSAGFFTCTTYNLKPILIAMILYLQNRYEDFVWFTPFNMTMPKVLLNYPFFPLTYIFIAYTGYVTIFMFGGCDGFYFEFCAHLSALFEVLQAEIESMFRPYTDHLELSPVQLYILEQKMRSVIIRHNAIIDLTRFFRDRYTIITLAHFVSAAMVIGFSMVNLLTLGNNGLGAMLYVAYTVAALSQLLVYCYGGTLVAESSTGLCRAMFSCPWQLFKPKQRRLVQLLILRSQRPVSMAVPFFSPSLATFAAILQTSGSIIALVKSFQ
T1 sequence (Q9VNB5 1-486 partner): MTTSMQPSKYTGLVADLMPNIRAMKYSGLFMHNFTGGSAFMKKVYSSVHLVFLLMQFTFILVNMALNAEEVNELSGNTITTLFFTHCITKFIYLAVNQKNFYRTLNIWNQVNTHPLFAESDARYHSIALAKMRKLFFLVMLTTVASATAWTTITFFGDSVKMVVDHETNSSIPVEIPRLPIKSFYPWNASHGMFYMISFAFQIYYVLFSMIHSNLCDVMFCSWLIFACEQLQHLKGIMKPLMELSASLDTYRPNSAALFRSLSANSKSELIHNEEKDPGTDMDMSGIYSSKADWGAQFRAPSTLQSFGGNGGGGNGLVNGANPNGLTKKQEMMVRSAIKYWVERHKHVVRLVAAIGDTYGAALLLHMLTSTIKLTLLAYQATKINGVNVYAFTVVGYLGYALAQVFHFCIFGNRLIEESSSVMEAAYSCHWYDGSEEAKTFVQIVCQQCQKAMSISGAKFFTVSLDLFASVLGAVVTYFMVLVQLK
Procedure: (§1) Twelve thousand to 18,000 cells were plated into each well of a black wall, transparent bottom 384-well microplate (Greiner) 48 h or 72 h before the measurements and were simultaneously treated with 1 μg/mL doxycycline. Typically, three columns were filled with one OR expressing cell line, each row was treated with the same compound (three technical replicates for each OR), and each responsive VOC-OR combination was measured at least three times on different days. The plate has 24 columns, thus we could record responses in up to eight different cell lines in each plate. On the day of the experiment, the growth medium was replaced with 20 µL assay buffer/well (140 mM NaCl, 5 mM KCl, 2 mM CaCl2, 1 mM MgCl2, 5 mM HEPES-Na, 20 mM glucose, pH 7.3, 340 mOsm). […] Baseline fluorescence (F0) was recorded for 5 s, after which 7 µL VOC buffer (140 mM NaCl, 5 mM KCl, 2 mM CaCl2, 1 mM MgCl2, 5 mM HEPES-Na, 31 mM glucose, 0.1% DMSO, pH 7.3, 340 mOsm) was injected into each well in one row and the fluorescence response was recorded for an additional 30 s, at a rate of one read/sec. VOC solutions (VOC buffer with 4× concentration of the final measured VOC concentration, 9 µL/well was injected) were measured on the same wells in a second round with the same protocol. Each individual concentration of a specific VOC sample was recorded in three wells for the same cell line on the same microplate. The raw data were exported in xls file format, F0 and FMAX values, and the fluorescence intensity changes (∆F) were calculated in Excel (Microsoft) (Supplementary file Data summary.xlsx) using the following equation: ΔF=FMAX-F0/F0 (see also Fig. 1C). On each plate, we recorded the response of each cell line to 50 µM VUAA1. The average of these ∆F values of each cell line were used to calculate the VUAA1-normalized values for the rest of the plate, by dividing VOC response ∆F values by the average VUAA1 response ∆F value of the corresponding OR cell line. Each VOC-OR combination was measured three times as tec The recorded FMAX, F0, ∆F, VUAA1-normalized ∆F values, as well as the OR name, the name of the tested sample, and the final concentration for each well were copied into supplementary file Data summary.xlsx, that was used to summarize all the plates recorded. Here, the averages of the measurements were calculated for each receptor-VOC-concentration combination. […] Each VOC was measured at 1, 10, and 100 µM final concentration on each receptor. VUAA1-normalized response was calculated as described in methods. Values are averages of at least three biological replicates for responsive combinations and two for the non-responsive combinations. The chemical structures of the strong and medium ligands are shown for each cell line. Heat map: white-green colors correspond to the lowest-highest values measured for each cell line.

Drosophila OR98a = biological target: T2, Drosophila OR98a (Drosophila melanogaster, UniProt Q9VAZ3); assay: cell-based; design: GCaMP6 calcium fluorescence in stable HEK293 OR+ORCO lines; peak dF normalised to 50 uM VUAA1 (=1); details: HEK293; relative to 50 uM VUAA1 response; below 0.05 set to 0; read-out: % activation
T2 construct: expressed in transfected cells
T2 sequence (Q9VAZ3 1-397): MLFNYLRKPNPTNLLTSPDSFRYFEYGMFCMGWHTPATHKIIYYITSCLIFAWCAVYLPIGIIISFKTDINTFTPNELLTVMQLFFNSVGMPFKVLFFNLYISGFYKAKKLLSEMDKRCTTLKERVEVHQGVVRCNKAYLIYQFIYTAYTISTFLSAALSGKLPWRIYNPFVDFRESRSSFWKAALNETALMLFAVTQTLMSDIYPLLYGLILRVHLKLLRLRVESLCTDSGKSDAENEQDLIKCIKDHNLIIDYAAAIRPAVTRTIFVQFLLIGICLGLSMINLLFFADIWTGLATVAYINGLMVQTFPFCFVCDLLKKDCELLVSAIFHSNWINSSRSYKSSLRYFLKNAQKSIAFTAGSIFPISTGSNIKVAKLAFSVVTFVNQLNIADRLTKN
T2 sequence (Q9VNB5 1-486 partner): T1 sequence (Q9VNB5 1-486 partner)
Procedure: as §1

CC/C=C/CCO [e3-hexenol]
activity at 1 µM (Drosophila OR10a): 0%
activity at 10 µM (Drosophila OR10a): 0%
activity at 100 µM (Drosophila OR10a): 7.4%
activity at 1 µM (Drosophila OR98a): 0%
activity at 10 µM (Drosophila OR98a): 0%
activity at 100 µM (Drosophila OR98a): 0%
